# Legend:
# [1] = system: EKVX; assay: Antitumor activity against human EKVX cells assessed as cell growth inhibition at 10 uM incubated for 48 hrs by sulforhodamine B assay; format: functional; conditions: read-out: GI
# [2] = system: UO-31; assay: Antitumor activity against human UO-31 cells assessed as cell growth inhibition at 10 uM incubated for 48 hrs by sulforhodamine B assay; format: functional; conditions: read-out: GI
# [3] = system: SW-620; assay: Antitumor activity against human SW620 cells assessed as cell growth inhibition at 10 uM incubated for 48 hrs by sulforhodamine B assay; conditions: SW-620, 48 h, read-out: GI
# [4] = system: HCC 2998; assay: Antitumor activity against human HCC2998 cells assessed as cell growth inhibition at 10 uM incubated for 48 hrs by sulforhodamine B assay; format: functional; conditions: read-out: GI
# [5] = system: NCI-H522; assay: Antitumor activity against human NCI-H522 cells assessed as cell growth inhibition at 10 uM incubated for 48 hrs by sulforhodamine B assay; format: functional; conditions: read-out: GI
# [6] = system: SN12C; assay: Antitumor activity against human SN12C cells assessed as cell growth inhibition at 10 uM incubated for 48 hrs by sulforhodamine B assay; format: functional; conditions: read-out: GI
# [7] = system: RXF 393; assay: Antitumor activity against human RXF 393 cells assessed as cell growth inhibition at 10 uM incubated for 48 hrs by sulforhodamine B assay; format: functional; conditions: read-out: GI
# [8] = system: HL-60(TB); assay: Antitumor activity against human HL-60(TB) cells assessed as cell growth inhibition at 10 uM incubated for 48 hrs by sulforhodamine B assay; format: functional; conditions: read-out: GI
# [9] = system: RPMI-8226; assay: Antitumor activity against human RPMI8226 cells assessed as cell growth inhibition at 10 uM incubated for 48 hrs by sulforhodamine B assay; format: functional; conditions: read-out: GI
# [10] = system: HCT-15; assay: Antitumor activity against human HCT15 cells assessed as cell growth inhibition at 10 uM incubated for 48 hrs by sulforhodamine B assay; format: functional; conditions: read-out: GI
# [11] = system: SNB-19; assay: Antitumor activity against human SNB-19 cells assessed as cell growth inhibition at 10 uM incubated for 48 hrs by sulforhodamine B assay; format: functional; conditions: read-out: GI
# [12] = system: NCI-H226; assay: Antitumor activity against human NCI-H226 assessed as cell growth inhibition at 10 uM incubated for 48 hrs by sulforhodamine B assay; format: functional; conditions: read-out: GI
# [13] = system: Hs-578T; assay: Antitumor activity against human HS 578T cells assessed as cell growth inhibition at 10 uM incubated for 48 hrs by sulforhodamine B assay; format: functional; conditions: read-out: GI
# [14] = system: CCRF-CEM; assay: Antitumor activity against human CCRF-CEM cells assessed as cell growth inhibition at 10 uM incubated for 48 hrs by sulforhodamine B assay; format: functional; conditions: read-out: GI
# [15] = system: OVCAR-4; assay: Antitumor activity against human OVCAR-4 cells assessed as cell growth inhibition at 10 uM incubated for 48 hrs by sulforhodamine B assay; format: functional; conditions: read-out: GI
# [16] = system: SF-268; assay: Antitumor activity against human SF268 cells assessed as cell growth inhibition at 10 uM incubated for 48 hrs by sulforhodamine B assay; format: functional; conditions: read-out: GI
# [17] = system: NCI/ADR-RES; assay: Antitumor activity against human NCI/ADR-RES cells assessed as cell growth inhibition at 10 uM incubated for 48 hrs by sulforhodamine B assay; format: functional; conditions: read-out: GI
# [18] = system: COLO 205; assay: Antitumor activity against human COLO205 cells assessed as cell growth inhibition at 10 uM incubated for 48 hrs by sulforhodamine B assay; format: functional; conditions: read-out: GI
# [19] = system: PC-3; assay: Antitumor activity against human PC-3 cells assessed as cell growth inhibition at 10 uM incubated for 48 hrs by sulforhodamine B assay; format: functional; conditions: read-out: GI
# [20] = system: OVCAR-8; assay: Antitumor activity against human OVCAR-8 cells assessed as cell growth inhibition at 10 uM incubated for 48 hrs by sulforhodamine B assay; format: functional; conditions: read-out: GI
# [21] = system: KM12; assay: Antitumor activity against human KM12 cells assessed as cell growth inhibition at 10 uM incubated for 48 hrs by sulforhodamine B assay; format: functional; conditions: read-out: GI
# [22] = system: HOP-92; assay: Antitumor activity against human HOP92 cells assessed as cell growth inhibition at 10 uM incubated for 48 hrs by sulforhodamine B assay; format: functional; conditions: read-out: GI
# [23] = system: SF-295; assay: Antitumor activity against human SF295 cells assessed as cell growth inhibition at 10 uM incubated for 48 hrs by sulforhodamine B assay; format: functional; conditions: read-out: GI
# [24] = system: Malme-3M; assay: Antitumor activity against human MALME-3M cells assessed as cell growth inhibition at 10 uM incubated for 48 hrs by sulforhodamine B assay; format: functional; conditions: read-out: GI
# [25] = system: HT-29; assay: Antitumor activity against human HT-29 cells assessed as cell growth inhibition at 10 uM incubated for 48 hrs by sulforhodamine B assay; format: functional; conditions: read-out: GI
# [26] = system: MDA-MB-231; assay: Antitumor activity against human MDA-MB-231/ATCC cells assessed as cell growth inhibition at 10 uM incubated for 48 hrs by sulforhodamine B assay; format: functional; conditions: read-out: GI
# [27] = system: NCI-H23; assay: Antitumor activity against human NCI-H23 cells assessed as cell growth inhibition at 10 uM incubated for 48 hrs by sulforhodamine B assay; format: functional; conditions: read-out: GI
# [28] = system: SK-OV-3; assay: Antitumor activity against human SK-OV-3 cells assessed as cell growth inhibition at 10 uM incubated for 48 hrs by sulforhodamine B assay; format: functional; conditions: read-out: GI
# [29] = system: UACC-62; assay: Antitumor activity against human UACC-62 cells assessed as cell growth inhibition at 10 uM incubated for 48 hrs by sulforhodamine B assay; format: functional; conditions: read-out: GI
# [30] = system: HCT-116; assay: Antitumor activity against human HCT116 cells assessed as cell growth inhibition at 10 uM incubated for 48 hrs by sulforhodamine B assay; format: functional; conditions: read-out: GI
# [31] = system: MDA-MB-468; assay: Antitumor activity against human MDA-MB-468 cells assessed as cell growth inhibition at 10 uM incubated for 48 hrs by sulforhodamine B assay; format: functional; conditions: read-out: GI
# [32] = system: MOLT-4; assay: Antitumor activity against human MOLT4 cells assessed as cell growth inhibition at 10 uM incubated for 48 hrs by sulforhodamine B assay; format: functional; conditions: read-out: GI
# [33] = system: K562; assay: Antitumor activity against human K562 cells assessed as cell growth inhibition at 10 uM incubated for 48 hrs by sulforhodamine B assay; format: functional; conditions: read-out: GI
# [34] = system: ACHN; assay: Antitumor activity against human ACHN cells assessed as cell growth inhibition at 10 uM incubated for 48 hrs by sulforhodamine B assay; format: functional; conditions: read-out: GI
# [35] = system: BT-549; assay: Antitumor activity against human BT-549 cells assessed as cell growth inhibition at 10 uM incubated for 48 hrs by sulforhodamine B assay; format: functional; conditions: read-out: GI
# [36] = system: SR; assay: Antitumor activity against human SR cells assessed as cell growth inhibition at 10 uM incubated for 48 hrs by sulforhodamine B assay; format: functional; conditions: read-out: GI
# [37] = system: NCI-H460; assay: Antitumor activity against human NCI-H460 assessed as cell growth inhibition at 10 uM incubated for 48 hrs by sulforhodamine B assay; format: functional; conditions: read-out: GI
# [38] = system: SK-MEL-28; assay: Antitumor activity against human SK-MEL-28 cells assessed as cell growth inhibition at 10 uM incubated for 48 hrs by sulforhodamine B assay; format: functional; conditions: read-out: GI
# [39] = system: IGROV-1; assay: Antitumor activity against human IGROV1 cells assessed as cell growth inhibition at 10 uM incubated for 48 hrs by sulforhodamine B assay; format: functional; conditions: read-out: GI
# [40] = system: MDA-MB-435; assay: Antitumor activity against human MDA-MB-435 cells assessed as cell growth inhibition at 10 uM incubated for 48 hrs by sulforhodamine B assay; format: functional; conditions: read-out: GI
# [41] = system: A498; assay: Antitumor activity against human A498 cells assessed as cell growth inhibition at 10 uM incubated for 48 hrs by sulforhodamine B assay; format: functional; conditions: read-out: GI
# [42] = system: SNB-75; assay: Antitumor activity against human SNB-75 cells assessed as cell growth inhibition at 10 uM incubated for 48 hrs by sulforhodamine B assay; format: functional; conditions: read-out: GI
# [43] = system: U-251; assay: Antitumor activity against human U251 cells assessed as cell growth inhibition at 10 uM incubated for 48 hrs by sulforhodamine B assay; format: functional; conditions: read-out: GI
# [44] = system: OVCAR-3; assay: Antitumor activity against human OVCAR-3 cells assessed as cell growth inhibition at 10 uM incubated for 48 hrs by sulforhodamine B assay; format: functional; conditions: read-out: GI
# [45] = system: M14; assay: Antitumor activity against human M14 cells assessed as cell growth inhibition at 10 uM incubated for 48 hrs by sulforhodamine B assay; format: functional; conditions: read-out: GI
# [46] = system: 786-0; assay: Antitumor activity against human 786-0 cells assessed as cell growth inhibition at 10 uM incubated for 48 hrs by sulforhodamine B assay; format: functional; conditions: read-out: GI
# [47] = system: MCF7; assay: Antitumor activity against human MCF7 cells assessed as cell growth inhibition at 10 uM incubated for 48 hrs by sulforhodamine B assay; format: functional; conditions: read-out: GI
# [48] = system: LOX IMVI; assay: Antitumor activity against human LOX IMVI cells assessed as cell growth inhibition at 10 uM incubated for 48 hrs by sulforhodamine B assay; format: functional; conditions: read-out: GI
smiles,measurement,setting,value
O=Cc1ccc(-c2nc3c([nH]2)-c2cccc4cccc-3c24)cc1,inhibition of growth at 10 µM,[1],23%
same,inhibition of growth at 10 µM,[2],33.4%
same,inhibition of growth at 10 µM,[3],< 10%
same,inhibition of growth at 10 µM,[4],12.8%
same,inhibition of growth at 10 µM,[5],< 10%
same,inhibition of growth at 10 µM,[6],< 10%
same,inhibition of growth at 10 µM,[7],< 10%
same,inhibition of growth at 10 µM,[8],< 10%
same,inhibition of growth at 10 µM,[9],22.8%
same,inhibition of growth at 10 µM,[10],23.7%
same,inhibition of growth at 10 µM,[11],< 10%
same,inhibition of growth at 10 µM,[12],12.4%
same,inhibition of growth at 10 µM,[13],< 10%
same,inhibition of growth at 10 µM,[14],11.1%
same,inhibition of growth at 10 µM,[15],27.4%
same,inhibition of growth at 10 µM,[16],13.3%
same,inhibition of growth at 10 µM,[17],< 10%
same,inhibition of growth at 10 µM,[18],< 10%
same,inhibition of growth at 10 µM,[19],21.1%
same,inhibition of growth at 10 µM,[20],< 10%
same,inhibition of growth at 10 µM,[21],13%
same,inhibition of growth at 10 µM,[22],14%
same,inhibition of growth at 10 µM,[23],< 10%
same,inhibition of growth at 10 µM,[24],< 10%
same,inhibition of growth at 10 µM,[25],< 10%
same,inhibition of growth at 10 µM,[26],25.6%
same,inhibition of growth at 10 µM,[27],14.9%
same,inhibition of growth at 10 µM,[28],< 10%
same,inhibition of growth at 10 µM,[29],19.8%
same,inhibition of growth at 10 µM,[30],19.2%
same,inhibition of growth at 10 µM,[31],30.9%
same,inhibition of growth at 10 µM,[32],20.5%
same,inhibition of growth at 10 µM,[33],16.5%
same,inhibition of growth at 10 µM,[34],< 10%
same,inhibition of growth at 10 µM,[35],< 10%
same,inhibition of growth at 10 µM,[36],16%
same,inhibition of growth at 10 µM,[37],23.6%
same,inhibition of growth at 10 µM,[38],< 10%
same,inhibition of growth at 10 µM,[39],28.9%
same,inhibition of growth at 10 µM,[40],< 10%
same,inhibition of growth at 10 µM,[41],< 10%
same,inhibition of growth at 10 µM,[42],< 10%
same,inhibition of growth at 10 µM,[43],< 10%
same,inhibition of growth at 10 µM,[44],12.3%
same,inhibition of growth at 10 µM,[45],< 10%
same,inhibition of growth at 10 µM,[46],< 10%
same,inhibition of growth at 10 µM,[47],51.6%
same,inhibition of growth at 10 µM,[48],25.8%

# Source: ChEMBL document CHEMBL4665624, “Synthesis of 5-(4-(1H-phenanthro[9,10-d]imidazol-2-yl)benzylidene)thiazolidine-2,4-dione as promising DNA and serum albumin-binding agents and evaluation of antitumor activity” (Eur J Med Chem, 2019)
